The values below come from patent US20060217443A1, “Method for preventing and/or treating vaginal and vulval infections” (Kimberly-Clark Worldwide, Inc., priority 2005, published 2006).

One data set relates to Gardnerella vaginalis. Nature of the data set: Inhibition test in solution by plate count, Gardnerella vaginalis. The class given is cell-based. The note with it: 7.5 mg/ml gallic acid. The protocol:
A sample of Gardnerella vaginalis, the pathogenic bacterium found in bacterial vaginosis, was obtained from the American Type Culture Collection (ATCC), catalog number 14018. The culture medium was ATCC medium 70 and Casman's medium (BD 229010) with 5 percent rabbit blood.
A test compound of Gardnerella vaginalis was prepared in culture media to form a suspension. Control and gallic acid solutions (0.9 milliliters; 7.5 milligram gallic acid/milliliter) were filtered and added into separate culture tubes, and to these were added 0.1 milliliter of the Gardnerella vaginalis suspension at a concentration of around 10^6 cfu/milliliter. The culture tubes were incubated at 37 degrees Celsius for 24 hours.
The samples in the culture tubes were then diluted at 1, 10 and 100 times, and 100 microliters of each dilution was plated onto agar plates with WASP (Whitely Automatic Spiral Plate) spiral plating equipment from Don Whitely Scientific Limited, USA. The plates were incubated overnight at 35 degrees Celsius, and the colonies were counted on each plate by either ProtoCol® from Synbiosis, Frederick, Md., USA Whitely Scientific Limited, USA or by hand count.

Data set [1] relates to Lactobacillus acidophilus. Nature of the data set: Inhibition test in solution by measuring optical density, Lactobacillus acidophilus. The format is cell-based. The note with it: gallic acid 5 milligram/milliliter, 24 hours, FIG. 4.
Protocol: A sample of Lactobacillus acidophilus, a desirable bacterium in the vaginal ecosystem, was also obtained from the American Type Culture Collection (ATCC), catalog number 4354, and was cultured in ATCC medium 416. […] Control and gallic acid solutions (0.9 milliliters) were filtered and added into separate culture tubes, and to these were added 0.1 milliliter of either the Candida albicans or Lactobacillus acidophilus suspension at a concentration of around 10^6 cfu/milliliter. The culture tubes were then incubated overnight at 37 degrees Celsius, whereafter the optical density was measured at 2, 4, 6 and 24 hours at 590 nanometers, by pippeting 100 microliters of the control or sample solutions into 96-well microplates, and then using a Molecular Devices of Sunnyvale, Calif. ThermoMax Microplate Reader to obtain the optical density readings at 590 nm wavelengths.
Data set [2] concerns Lactobacillus acidophilus. Nature of the data set: Zone-of-inhibition test, Lactobacillus acidophilus. The class given is cell-based. The protocol:
(§1) A sample of Lactobacillus acidophilus, a desirable bacterium in the vaginal ecosystem, was also obtained from the American Type Culture Collection (ATCC), catalog number 4354, and was cultured in ATCC medium 416. A microorganism culture of 10^5 cfu (colony forming units)/milliliter in a 1× phosphate buffered saline (PBS) solution (diluted from 10× PBS LIQUID CONCENTRATE from VWR Cat. No. EM-6507] was prepared for each of Candida albicans and Lactobacillus acidophilus. One milliliter of each solution was plated on proper agar plates, depending on which microorganism was being tested. The agar plates were incubated at 35 degrees Celsius for four hours. Three 4 millimeter diameter wells were then punched into each agar plate. A test sample of 10 mg/ml gallic acid in sterilized 2-N-morpholino ethane sulfonic (MES, pH=4.7) buffer (0.1 M 2-[morpholino]-ethanesulfonic acid, 0.9 percent NaCl, pH 4.7, prepared from BupHTM MES Buffer Saline Pack from Cat. No. 28390, Pierce Biotechnology, Inc., Rockford, Ill.) was added to one well of each plate. […] The plates were incubated overnight at 35 degrees Celsius. The presence of a zone of microorganism inhibition was measured the following day for Candida albicans and Lactobacillus acidophilus activity, respectively.

For data set [3], the system named is Candida albicans. In words: Inhibition test in solution by measuring optical density, Candida albicans. The format is cell-based. The note with it: gallic acid 5 milligram/milliliter, 24 hours, FIG. 3.
Protocol: A sample of Candida albicans, the yeast found in candidiasis, was also obtained from the American Type Culture Collection (ATCC), catalog number 10231, and was cultured in YM agar (Difco 0712) and YM broth (Difco 0711). […] Control and gallic acid solutions (0.9 milliliters) were filtered and added into separate culture tubes, and to these were added 0.1 milliliter of either the Candida albicans or Lactobacillus acidophilus suspension at a concentration of around 10^6 cfu/milliliter. The culture tubes were then incubated overnight at 37 degrees Celsius, whereafter the optical density was measured at 2, 4, 6 and 24 hours at 590 nanometers, by pippeting 100 microliters of the control or sample solutions into 96-well microplates, and then using a Molecular Devices of Sunnyvale, Calif. ThermoMax Microplate Reader to obtain the optical density readings at 590 nm wavelengths.
The test system of data set [4] is Lactobacillus acidophilus. The note with it: previously shown; cited from earlier work.
Data set [5] has as its system Candida albicans. In words: Zone-of-inhibition test, Candida albicans. The format is cell-based. The protocol: as §1, with “Candida albicans, the yeast found” for “Lactobacillus acidophilus, a desirable bacterium”, “candidiasis,” for “the vaginal ecosystem,”, “10231,” for “4354,”, “YM agar (Difco 0712) and YM broth (Difco 0711).” for “ATCC medium 416.”
The subject of a further data set is Trichomonas vaginalis. Nature of the data set: Viable Trichomonas vaginalis cell count under a microscope. The format is cell-based. The note with it: for Inhibitory effect on Trichomonas vaginalis cell counts compared to control: gallic acid 0.11 percent. The protocol: A sample of Trichomonas vaginalis, the parasite found in trichomonas vaginitis, was obtained from the American Type Culture Collection (ATCC), catalog number 30001. The culture medium was LYI-S-2 medium (ATCC medium 2154).
A sterile LYI-S-2 medium was prepared according to the manufacturer's instructions, and the pH of this medium was adjusted to pH 6.0 using 1 N HCl. Gallic acid monohydrate (SIGMA-398225 from Signa Aldrich, USA) was dissolved in the LYI-S-2 medium. […] 0.9 milliliter of the gallic acid/LYI-S-2 solution or culture medium only (as control) was added into different culture tubes.
0.1 milliliter of Trichomonas vaginalis culture suspension, at a concentration of 1×10^6/milliliter, was added to each of the culture tubes, which were then incubated at 35 degrees Celsius on a 15 degree horizontal slant.
The viable Trichomonas vaginalis cells in each tube were counted under a microscope after 24 hours.
This procedure was repeated twice.
Essentially the same procedure was performed as described in Example 1, but this time differing concentrations of gallic acid were tested on samples of Trichomonas vaginalis. The gallic acid concentrations that were tested were: 0.11 percent, 0.66 percent and 1.1 percent. More samples in each group were included (n=4), and the effects of the gallic acid over a longer time period were also observed, i.e. after 24 and 48 hours.

The nature of data set [6]: Highest concentration obtainable in water. The note with it: gallic acid monohydrate, only partially water soluble. The format is physicochemical.
The mark [7] stands for this setting: 10 milligram/ml gallic acid or 0.5 percent Benzyl Quats in well, MES buffer pH 4.7, overnight 35 degrees Celsius, n = 2.
Setting [8] is: zone-of-inhibition test, gallic acid 10 mg/ml, Benzyl Quats 0.5 percent.

Broadly, the inhibition is how much of the control response was suppressed.

Where two headings read alike, the source gives them in different places.

In the case of `O=C(O)c1cc(O)c(O)c(O)c1` [gallic acid, 3,4,5-trihydroxybenzoic acid], the “Gardnerella vaginalis plate count, Average” value in the data set on Gardnerella vaginalis (24 hours treatment, n = 4, negative control 1.81E+08, p < 0.05) is recorded as “*3.43E+04”. For the same compound, the inhibition at 7500 µg/mL in the data set with Gardnerella vaginalis (Gardnerella vaginalis, 24 hours of treatment, read-out: Inhibition on the growth of Gardnerella vaginalis compared to control group) was > 100%. In data set [1], the “Growth of Lactobacillus acidophilus by optical density at 590 nm (in words)” value is given as “did not show any significant inhibition”. In addition, the “Zone of inhibition, Lactobacillus acidophilus” value in data set [2] (setting [7]) was found to be 0 millimeter. For the same compound, the “Effect on growth of Lactobacillus acidophilus (in words)” value in data set [2] (setting [8]) is given as “did not affect the growth of Lactobacillus acidophilus”; in data set [4], “does not affect the growth of Lactobacillus acidophilus”. Further, the “Growth of Candida albicans by optical density at 590 nm (in words)” value in the data set on Candida albicans [3] is reported as “significantly inhibit the growth of Candida albicans”. Also, the “Zone of inhibition, Candida albicans” value in the data set on Candida albicans [5] (setting [7]) came to 5 millimeter. The “Effect on growth of Candida albicans (in words)” value with Candida albicans [5] (setting [8]) was “selectively inhibited Candida albicans”. Also, the “Inhibitory effect on Trichomonas vaginalis cell counts compared to control” value turned out to be 50% in the data set on Trichomonas vaginalis (24 hours, n=4, FIG. 1) and 70% with Trichomonas vaginalis (48 hours, n=4, FIG. 2). In addition, the “Live Trichomonas vaginalis cells (in words)” value in the data set on Trichomonas vaginalis (gallic acid 0.66 percent, 24 hours, n=4, Example 2) is reported as “No live Trichomonas vaginalis cells were observed”; with Trichomonas vaginalis (gallic acid 0.66 percent, 48 hours, n=4, Example 2) it was “No live Trichomonas vaginalis cells were observed”; in the data set with Trichomonas vaginalis (gallic acid 1.1 percent, 24 hours, Example 1), “no live Trichomonas vaginalis cells were observed”; in the data set on Trichomonas vaginalis (gallic acid 1.1 percent, 24 hours, n=4, Example 2), “No live Trichomonas vaginalis cells were observed”; in the data set with Trichomonas vaginalis (gallic acid 1.1 percent, 48 hours, n=4, Example 2), “No live Trichomonas vaginalis cells were observed”. The “Number of Trichomonas cells, Repeat 2” value in the data set with Trichomonas vaginalis (gallic acid 1.1 percent, 24 hours, Example 1, control 1 000 000) amounted to 0. For the same compound, the “Number of Trichomonas cells, Repeat 1” value with Trichomonas vaginalis (gallic acid 1.1 percent, 24 hours, Example 1, control 900 000) came out at 0. Besides, in data set [6], the “Highest concentration of gallic acid that could be obtained in water” value is listed as 1.1 percent (g/100 milliliter).
